The subject of this data set is rodent carcinogenicity bioassays, tumor incidence. The experiment in a line: CCRIS carcinogenicity studies. The gist of the method:
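NCI-built, expert-reviewed records of carcinogenicity and related test outcomes (mutagenicity, tumor promotion/inhibition) compiled from published and report sources, historical span 1985-2011, not updated.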

SMILES strings stand for the structures. The source made the active and inactive calls. How the calls were made is not given here.

The text below walks through data of PubChem BioAssay AID1259411 (Chemical Carcinogenesis Research Information System (CCRIS), 2018).

As for `CCN(CC)C(=O)N(C)N=O`, the carcinogen call (Species: HAMSTER, Strain/Sex: SYRIAN/FEMALE, Route: SUBCUTANEOUS, Dose: 0, 7.75, 14.15, 28.3, 56.6 MG/KG IN 0.1 ML OLIVE OIL 1/WK FOR 52 WK (STUDY DURATION: LIFESPAN), Dose: 0, 7.75, 14.15, 28.3, 56.6 MG/KG IN 0.1 ML OLIVE OIL 1/WK FOR 52 WK (STUDY DURATION: LIFESPAN), Tumor Site: Type of Lesion: NASAL CAVITY: SQUAMOUS CELL CARCINOMA, SPLEEN: HEMANGIOENDOTHELIOMA, FORESTOMACH: SQUAMOUS CELL CARCINOMA, PAPILLOMA, Tumor Site: Type of Lesion: NASAL CAVITY: SQUAMOUS CELL CARCINOMA, SPLEEN: HEMANGIOENDOTHELIOMA, FORESTOMACH: SQUAMOUS CELL CARCINOMA, PAPILLOMA) was “active; positive”; the carcinogen call (Species: HAMSTER, Strain/Sex: SYRIAN/MALE, Route: GAVAGE, Dose: 0, 40 MG/ML ((0.2 ML OF A SOLUTION IN ETHYL ACETATE/CORN OIL (1:2)) 1/WK FOR 25 WK (STUDY DURATION: LIFE SPAN), Tumor Site: Type of Lesion: LIVER: HEMANGIOSARCOMA, CHOLANGIOMA OR CARCINOMA, SPLEEN: HEMANGIOSARCOMA, FORESTOMACH: SQUAMOUS CELL CARCINOMA OR PAPIL, Tumor Site: Type of Lesion: LIVER: HEMANGIOSARCOMA, CHOLANGIOMA OR CARCINOMA, SPLEEN: HEMANGIOSARCOMA, FORESTOMACH: SQUAMOUS CELL CARCINOMA OR PAPIL) was “active; positive”; the carcinogen call (Species: HAMSTER, Strain/Sex: SYRIAN/MALE, Route: SUBCUTANEOUS, Dose: 0, 7.75, 14.15, 28.3, 56.6 MG/KG IN 0.1 ML OLIVE OIL 1/WK FOR 52 WK (STUDY DURATION: LIFESPAN), Dose: 0, 7.75, 14.15, 28.3, 56.6 MG/KG IN 0.1 ML OLIVE OIL 1/WK FOR 52 WK (STUDY DURATION: LIFESPAN), Tumor Site: Type of Lesion: NASAL CAVITY: SQUAMOUS CELL CARCINOMA, SPLEEN: HEMANGIOENDOTHELIOMA, FORESTOMACH: SQUAMOUS CELL CARCINOMA, PAPILLOMA, Tumor Site: Type of Lesion: NASAL CAVITY: SQUAMOUS CELL CARCINOMA, SPLEEN: HEMANGIOENDOTHELIOMA, FORESTOMACH: SQUAMOUS CELL CARCINOMA, PAPILLOMA) was “active; positive”.
For the compound `CN(C)NC(=O)CCC(=O)O`, the carcinogen call by setting is: (Species: MOUSE, Strain/Sex: B6C3F1/FEMALE, Route: ORAL, Dose: 0, 5000, 10000 PPM IN DIET FOR 104 WK (STUDY DURATION: 105 WK), Dose: 0, 5000, 10000 PPM IN DIET FOR 104 WK (STUDY DURATION: 105 WK)) “inactive; negative”; (Species: MOUSE, Strain/Sex: B6C3F1/MALE, Route: ORAL, Dose: 0, 5000, 10000 PPM IN DIET FOR 104 WK (STUDY DURATION: 105 WK), Dose: 0, 5000, 10000 PPM IN DIET FOR 104 WK (STUDY DURATION: 105 WK), Tumor Site: Type of Lesion: LIVER: HEPATOCELLULAR CARCINOMA) “equivocal”; (Species: Mouse, Strain/Sex: CD-1/Female (50/group), Route: Oral, Dose: 0, 300, 3,000, 6,000, 10,000 ppm in diet for 2 yr, Dose: 0, 300, 3,000, 6,000, 10,000 ppm in diet for 2 yr, Tumor Site: Type of Lesion: Uterus: at 10,000 ppm) “equivocal”; (Species: Mouse, Strain/Sex: CD-1/Male (50/group), Route: Oral, Dose: 0, 300, 3,000, 6,000, 10,000 ppm in diet for 2 yr, Dose: 0, 300, 3,000, 6,000, 10,000 ppm in diet for 2 yr, Tumor Site: Type of Lesion: Vascular tumor: hemangioma and hemangiosarcoma in liver at 10,000 ppm) “equivocal”; (Species: Mouse, Strain/Sex: Swiss/Male and Female (100/group in controls; 50/group in treated group), Route: Oral, Dose: 0, 2% in drinking water (3000 mg/kg/day), 0.003% UDMH (40 ppm impurity) for 2 yr, Dose: 0, 2% in drinking water (3000 mg/kg/day), 0.003% UDMH (40 ppm impurity) for 2 yr, Tumor Site: Type of Lesion: Lung: adenomas and adenocarcinomas Vascular tumor: hemangioma and hemangiosarcoma predominantly in liver) “equivocal, incidence of lung tumors may be from udmh”; (Species: RAT, Strain/Sex: F344/FEMALE, Route: ORAL, Dose: 0, 5000, 10000 PPM IN DIET FOR 104 WK (STUDY DURATION: 105 WK), Dose: 0, 5000, 10000 PPM IN DIET FOR 104 WK (STUDY DURATION: 105 WK), Tumor Site: Type of Lesion: ENDOMETRIUM: ADENOCARCINOMA, UTERUS: LEIOMYOSARCOMA) “active; positive”. For the same compound, the carcinogen call by setting is: (Species: RAT, Strain/Sex: F344/MALE, Route: ORAL, Dose: 0, 5000, 10000 PPM IN DIET FOR 104 WK (STUDY DURATION: 105 WK), Dose: 0, 5000, 10000 PPM IN DIET FOR 104 WK (STUDY DURATION: 105 WK)) “inactive; negative”; (Species: Rat, Strain/Sex: Fischer 344/Female (50/group), Route: Oral, Dose: 0, 1, 50, 100 ppm in diet for 2 yr, Dose: 0, 1, 50, 100 ppm in diet for 2 yr, Tumor Site: Type of Lesion: Liver: increase at 50 and 100 ppm (incidence not reported by CADPR) Uterus: Adenocarcinoma (0, 0, 0, 2)) “equivocal, ca dpr described results as providing marginal evidence of treatment”; (Species: Rat, Strain/Sex: Fischer 344/Female (50/group), Route: Oral, Dose: 0, 100, 500, 5,000, 10,000 ppm in diet for 2 yr, Dose: 0, 100, 500, 5,000, 10,000 ppm in diet for 2 yr, Tumor Site: Type of Lesion: Uterus: Adenocarcinoma (0, 1, 2, 1, 1), Leiomyocarcinoma (0, 0, 0, 2, 1)) “equivocal, ca dpr noted rarity of the tumors but that mtd not achieved”; (Species: Rat, Strain/Sex: Fischer 344/Male (50/group), Route: Oral, Dose: 0, 100, 500, 5,000, 10,000 ppm in diet for 2 yr, Dose: 0, 100, 500, 5,000, 10,000 ppm in diet for 2 yr) “inactive; negative”.
As to `Cc1cc(NS(=O)(=O)c2ccc(N)cc2)no1`, the carcinogen call (Species: RAT, Strain/Sex: CD-1/MALE,FEMALE, Route: ORAL, Dose: 25, 50, 150, 300, 600 MG/KG/D IN DIET FOR 60 WK, Dose: 25, 50, 150, 300, 600 MG/KG/D IN DIET FOR 60 WK, Tumor Site: Type of Lesion: THYROID GLAND: ADENOMA OR NODULES) is “active; positive”.
Regarding `Cc1ccc([N+]#N)cc1`, the carcinogen call is, setting by setting: (Species: MOUSE, Strain/Sex: SWISS/FEMALE, Route: SUBCUTANEOUS, Dose: 0, 50 UG/G 1/WK FOR 16 OR 19 WK (STUDY DURATION: 140 WK), Tumor Site: Type of Lesion: SUBCUTANEOUS TISSUE: TUMOR, SKIN: TUMOR) “active; positive”; (Species: MOUSE, Strain/Sex: SWISS/MALE, Route: SUBCUTANEOUS, Dose: 0, 50 UG/G 1/WK FOR 16 OR 19 WK (STUDY DURATION: 140 WK), Tumor Site: Type of Lesion: SUBCUTANEOUS TISSUE: TUMOR) “active; positive”.
For `C=CCO`, the carcinogen call (Species: HAMSTER, Strain/Sex: SYRIAN/MALE, Route: GAVAGE, Dose: 0, 2 MG/WK FOR 60 WK (STUDY DURATION: 92 WK)) is “inactive; negative”; the carcinogen call (Species: RAT, Strain/Sex: F344/FEMALE, Route: ORAL, Dose: 0, 300 MG/L IN DRINKING WATER 5 D/WK FOR 100 WK (STUDY DURATION: 130 WK)) was “inactive; negative”; the carcinogen call (Species: RAT, Strain/Sex: F344/MALE, Route: ORAL, Dose: 0, 300 MG/L IN DRINKING WATER 5 D/WK FOR 100 WK (STUDY DURATION: 130 WK)) is “inactive; negative”.
For the compound `CCCCCCC(=O)O[C@H]1CC[C@H]2[C@@H]3CCC4=CC(=O)CC[C@]4(C)[C@H]3CC[C@]12C`, the carcinogen call is “active; positive” (Species: RAT, Strain/Sex: WISTAR/FEMALE, Route: INTRAMUSCULAR, Dose: 0, 12.5 MG 1/WK FOR 24 WK (STUDY DURATION: 24 WK), Tumor Site: Type of Lesion: BLADDER: PAPILLOMA OR CARCINOMA) and “inactive; negative” (Species: RAT, Strain/Sex: WISTAR/FEMALE, Route: INTRAMUSCULAR, Dose: 0, 12.5 MG 1/WK FOR 24 WK ADMINISTERED TO OOPHORECTOMIZED RATS (STUDY DURATION: 24 WK)).
